Consider 4 compounds from patent publication EP0563814A2, “Carbonic acid esters of 2-amino-7-(1,3-dihydroxy-2-propoxymethyl)purines, their preparation and their use as antiviral agents” (HOECHST AKTIENGESELLSCHAFT, priority 1992, dated 1993).

Read-outs that look alike come from different tables or passages of the source.

Series [1] deals with Herpes simplex 1 Virus (HSV-1). Description: Activity against systemic HSV-1 infection in the NMRI mouse, oral treatment. The series is classed as in vivo, NMRI-Mäuse. The following applies: i.p. infection, observation two weeks. An excerpt:
Wirkung gegen systemische Herpes simplex 1 Virus (HSV-1) Infektion: NMRI-Mäuse, spezifisch pathogenfrei, im Gewicht von 15-18 g wurden intraperitoneal mit HSV-1 infiziert und anschließend mit den erfindungsgemäßen Verbindungen oral therapiert. Die Behandlung erfolgte erstmals 3 Stunden nach der Infektion und wurde zweimal täglich über 4 Tage fortgesetzt. Der Behandlungserfolg wurde anhand des Krankheitsverlaufes und der Überlebensrate gegenüber der unbehandelten Infektionskontrolle bestimmt. Letztere erhielt anstelle der erfindungsgemäßen Verbindungen physiologische Kochsalzlösung appliziert. Die Beobachtungszeit betrug zwei Wochen. Tabelle 1 zeigt die Ergebnisse dieser Untersuchung. Tabelle 1

Series [2] is described as follows: Oral bioavailability in the mouse. The following applies: for AUC(0-inf): analyte Formel 1', read-out: AUD (0-->oo) (converted). The series is classed as in vivo, Maus. An excerpt:
Folgende Bioverfügbarkeiten der Verbindungen der Formel 1' wurden bei Mäusen nach oraler Gabe der erfindungsgemäßen Verbindungen ermittelt: […]

In the case of `CC(=O)OCC(COC(C)=O)OCn1cnc2nc(N)ncc21` [Beispiel 1, 2-Amino-7-[(1,3-bis-acetoxy-2-propoxy)methyl]purin], the “mittlere Überlebenszeit (Tage)” value in series [1] (9 x 10 µmol/kg), in series [1] (9 x 30 µmol/kg) and in series [1] (9 x 100 µmol/kg) was > 14 Tage throughout. Moreover, the “Überlebende/ Gruppengröße” value in series [1] (9 x 10 µmol/kg), in series [1] (9 x 30 µmol/kg) and in series [1] (9 x 100 µmol/kg) was 5/5 each time.
In the case of `CCCC(=O)OCC(COC(=O)CCC)OCn1cnc2nc(N)ncc21` [Beispiel 2, 2-Amino-7-[(1,3-bis-butyryloxy-2-propoxy)methyl]purin], the “Überlebende/ Gruppengröße” value in series [1] (9 x 30 µmol/kg) and in series [1] (9 x 100 µmol/kg) was 5/5 throughout.
`CCC(=O)OCC(COC(=O)CC)OCn1cnc2nc(N)ncc21` [Beispiel 3, 2-Amino-7-[(1,3-bis-propionyloxy-2-propoxy)methyl]purin]: the “Überlebende/ Gruppengröße” value in series [1] (9 x 30 µmol/kg) and in series [1] (9 x 100 µmol/kg) was 5/5 each time.
As for `Nc1ncc2c(ncn2COC(CO)CO)n1` [Formel 1', 2-Amino-7-[(1,3-dihydroxy-2-propoxy)methyl]purin, reference compound], in series [2] (i.v., 25 mg/kg, availability of Formel 1'), the Bioverfügbarkeit is 100%. Further, the AUC(0-inf) in series [2] (in vivo, iv, 25 mg/kg) is 223 ng·h/mL; in series [2] (in vivo, po, 100 mg/kg), 154 ng·h/mL. Besides, the bioavailability in series [2] (in vivo, po, 100 mg/kg, availability of Formel 1', read-out: Bioverfügbarkeit) was 17.2%. The “mittlere Überlebenszeit (Tage)” value in series [1] (9 x 10 µmol/kg) stood at 10.5 ± 0.7 Tage; in series [1] (9 x 30 µmol/kg) it was 9.5 ± 1.3 Tage. Further, the “Überlebende/ Gruppengröße” value in series [1] (9 x 10 µmol/kg) is 3/5; in series [1] (9 x 30 µmol/kg), 1/5; in series [1] (9 x 100 µmol/kg) it was 5/5.
